We go through 10 compounds from US20250296938A1, “Compounds that Interact with the Ras Superfamily for the Treatment of Cancers, Inflammatory Diseases, Rasopathies, and Fibrotic Disease” (SHY Therapeutics, LLC, priority 2018, published 2025).

The first experiment has as its target T1, KRas G12D mutant (Homo sapiens, UniProt P01116, G12D).
T1 construct: fused on or other part: His tag, used for capture on nickel-coated plates
Nature of the experiment: Ras GTP binding domain inhibition assay (Cy3-GTP/Cy5-GTP competition). The note with it: at 20 μM, with SOS; read-out: KRas G12D mutant + SOS: % inh. In outline: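 His-tagged Ras immobilized on nickel-coated wells in Tris buffer (pH 7.4 or 7.0) with 1 mM MgCl2, 1 mM DTT, 1% DMSO. Compound (20 μM, or serial dilution for IC50) incubated 3 hours at room temperature, ± Sos (residues 556-1049) in final hour. Bound 100 nM Cy3-/Cy5-GTP read after 45 minutes and washing.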
With `COCCNc1nc(-c2nccn2C)nc2sc(-c3cccc(OC)c3Cl)c(-c3ccc(OC)cc3)c12` [drawing 1009], the inhibition at 20 µM lay within 51 to 75%.

For the compound `COCCNc1nc(-c2nccn2C)nc2sc(-c3cccc(OC)c3)c(-c3ccc(OC)cc3)c12` [drawing 1010], the inhibition at 20 µM fell in the range of 76 to 100%.

Turning to `COCCNc1nc(-c2nccn2C)nc2sc(-c3ccccc3Cl)c(-c3ccc(OC)cc3)c12` [drawing 1011], the inhibition at 20 µM was 76 to 100%.

Regarding `COCCNc1nc(-c2nccn2C)nc2sc(-c3cc(OC)ccc3Cl)c(-c3ccc(OC)cc3)c12` [drawing 1012], the inhibition at 20 µM is 26 to 50%.

On to `COc1cccc(-c2csc3c(O)nc(-c4nccn4C)nc23)c1Cl` [drawing 1013], for which the inhibition at 20 µM fell in the range of 1 to 25%.

As for `COc1c(O)nc(-c2ccccn2)nc1Oc1ccc(C(=O)N(C)C)cc1` [drawing 1014], the inhibition at 20 µM is 26 to 50%.

Consider `COc1c(O)nc(-c2ccccn2)nc1Nc1ccccc1` [drawing 1015], for which the inhibition at 20 µM fell in the range of 26 to 50%.

For the compound `CCn1cc(Nc2nc(-c3ccccn3)nc(O)c2OC)cn1` [drawing 1016], the inhibition at 20 µM lay in the range of 26 to 50%.

On to `CCOc1cccc(Nc2nc(-c3ccccn3)nc(O)c2OC)c1` [drawing 1017], for which the inhibition at 20 µM is 26 to 50%.

For the compound `COc1c(F)cccc1-c1sc2nc(-c3nccn3C)nc(NC3CCC(OC)C3)c2c1-c1ccccc1` (stereo not drawn) [drawing 1021], the inhibition at 20 µM lay within 1 to 25%.

Staying with this experiment, now noted: at 20 μM, without SOS; read-out: KRas G12D mutant: % inh.
For `COCCNc1nc(-c2nccn2C)nc2sc(-c3cccc(OC)c3Cl)c(-c3ccc(OC)cc3)c12` [drawing 1009], the inhibition at 20 µM lay in the range of 1 to 25%.

Turning to `COCCNc1nc(-c2nccn2C)nc2sc(-c3cccc(OC)c3)c(-c3ccc(OC)cc3)c12` [drawing 1010], the inhibition at 20 µM fell in the range of 51 to 75%.

`COCCNc1nc(-c2nccn2C)nc2sc(-c3ccccc3Cl)c(-c3ccc(OC)cc3)c12` [drawing 1011]: the inhibition at 20 µM lay in the range of 26 to 50%.

For the compound `COCCNc1nc(-c2nccn2C)nc2sc(-c3cc(OC)ccc3Cl)c(-c3ccc(OC)cc3)c12` [drawing 1012], the inhibition at 20 µM was 1 to 25%.

Consider `COc1cccc(-c2csc3c(O)nc(-c4nccn4C)nc23)c1Cl` [drawing 1013], for which the inhibition at 20 µM was 1 to 25%.

For `COc1c(O)nc(-c2ccccn2)nc1Oc1ccc(C(=O)N(C)C)cc1` [drawing 1014], the inhibition at 20 µM lay in the range of 51 to 75%.

For the compound `COc1c(O)nc(-c2ccccn2)nc1Nc1ccccc1` [drawing 1015], the inhibition at 20 µM fell in the range of 26 to 50%.

On to `CCn1cc(Nc2nc(-c3ccccn3)nc(O)c2OC)cn1` [drawing 1016], for which the inhibition at 20 µM was 26 to 50%.

For the compound `CCOc1cccc(Nc2nc(-c3ccccn3)nc(O)c2OC)c1` [drawing 1017], the inhibition at 20 µM was 51 to 75%.

In the case of `COc1c(F)cccc1-c1sc2nc(-c3nccn3C)nc(NC3CCC(OC)C3)c2c1-c1ccccc1` (stereo not drawn) [drawing 1021], the inhibition at 20 µM fell in the range of 1 to 25%.

The target in another experiment is Rac-1 (Homo sapiens, UniProt P63000). Described as above. The note with it: with SOS, read-out: Rac-1 + SOS: % inh. In outline:
(§1)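 First, His-tagged protein is coated on nickel wells overnight at 4 °C. Next, compound (20 μM single point or serial dilution) is added for 3 h at room temperature, with or without Sos exchange factor in the last hour. Finally, 100 nM labelled GTP binds for 45 min and retained signal is measured.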
On to `COCCNc1nc(-c2nccn2C)nc2sc(-c3cccc(OC)c3Cl)c(-c3ccc(OC)cc3)c12` [drawing 1009], for which the inhibition at 20 µM was 51 to 75%.

On to `COCCNc1nc(-c2nccn2C)nc2sc(-c3cccc(OC)c3)c(-c3ccc(OC)cc3)c12` [drawing 1010], for which the inhibition at 20 µM lay in the range of 26 to 50%.

For the compound `COCCNc1nc(-c2nccn2C)nc2sc(-c3ccccc3Cl)c(-c3ccc(OC)cc3)c12` [drawing 1011], the inhibition at 20 µM lay in the range of 26 to 50%.

Consider `COCCNc1nc(-c2nccn2C)nc2sc(-c3cc(OC)ccc3Cl)c(-c3ccc(OC)cc3)c12` [drawing 1012], for which the inhibition at 20 µM is 1 to 25%.

As for `COc1cccc(-c2csc3c(O)nc(-c4nccn4C)nc23)c1Cl` [drawing 1013], the inhibition at 20 µM lay in the range of 26 to 50%.

Regarding `COc1c(O)nc(-c2ccccn2)nc1Oc1ccc(C(=O)N(C)C)cc1` [drawing 1014], the inhibition at 20 µM lay within 51 to 75%.

As for `COc1c(O)nc(-c2ccccn2)nc1Nc1ccccc1` [drawing 1015], the inhibition at 20 µM is 51 to 75%.

`CCn1cc(Nc2nc(-c3ccccn3)nc(O)c2OC)cn1` [drawing 1016]: the inhibition at 20 µM lay within 76 to 100%.

In the case of `CCOc1cccc(Nc2nc(-c3ccccn3)nc(O)c2OC)c1` [drawing 1017], the inhibition at 20 µM is 76 to 100%.

On to `COc1c(F)cccc1-c1sc2nc(-c3nccn3C)nc(NC3CCC(OC)C3)c2c1-c1ccccc1` (stereo not drawn) [drawing 1021], for which the inhibition at 20 µM was in the range of 51 to 75%.

Still in this experiment, the particulars now being: without SOS, read-out: Rac-1: % inh.
In the case of `COCCNc1nc(-c2nccn2C)nc2sc(-c3cccc(OC)c3Cl)c(-c3ccc(OC)cc3)c12` [drawing 1009], the inhibition at 20 µM lay in the range of 26 to 50%.

For the compound `COCCNc1nc(-c2nccn2C)nc2sc(-c3cccc(OC)c3)c(-c3ccc(OC)cc3)c12` [drawing 1010], the inhibition at 20 µM lay in the range of 1 to 25%.

For `COCCNc1nc(-c2nccn2C)nc2sc(-c3ccccc3Cl)c(-c3ccc(OC)cc3)c12` [drawing 1011], the inhibition at 20 µM is 1 to 25%.

`COCCNc1nc(-c2nccn2C)nc2sc(-c3cc(OC)ccc3Cl)c(-c3ccc(OC)cc3)c12` [drawing 1012]: the inhibition at 20 µM fell in the range of 1 to 25%.

As for `COc1cccc(-c2csc3c(O)nc(-c4nccn4C)nc23)c1Cl` [drawing 1013], the inhibition at 20 µM lay in the range of 1 to 25%.

In the case of `COc1c(O)nc(-c2ccccn2)nc1Oc1ccc(C(=O)N(C)C)cc1` [drawing 1014], the inhibition at 20 µM was 51 to 75%.

Consider `COc1c(O)nc(-c2ccccn2)nc1Nc1ccccc1` [drawing 1015], for which the inhibition at 20 µM was in the range of 51 to 75%.

Take `CCn1cc(Nc2nc(-c3ccccn3)nc(O)c2OC)cn1` [drawing 1016]: the inhibition at 20 µM was in the range of 51 to 75%.

Regarding `CCOc1cccc(Nc2nc(-c3ccccn3)nc(O)c2OC)c1` [drawing 1017], the inhibition at 20 µM is 76 to 100%.

Turning to `COc1c(F)cccc1-c1sc2nc(-c3nccn3C)nc(NC3CCC(OC)C3)c2c1-c1ccccc1` (stereo not drawn) [drawing 1021], the inhibition at 20 µM was 26 to 50%.

The next experiment deals with Rho-A (Homo sapiens, UniProt P61586). The experiment is described as above. Particulars: with SOS, read-out: Rho-A + SOS: % inh. In outline: as §1
Turning to `COCCNc1nc(-c2nccn2C)nc2sc(-c3cccc(OC)c3Cl)c(-c3ccc(OC)cc3)c12` [drawing 1009], the inhibition at 20 µM lay in the range of 26 to 50%.

With `COCCNc1nc(-c2nccn2C)nc2sc(-c3cccc(OC)c3)c(-c3ccc(OC)cc3)c12` [drawing 1010], the inhibition at 20 µM was 0%.

Turning to `COCCNc1nc(-c2nccn2C)nc2sc(-c3ccccc3Cl)c(-c3ccc(OC)cc3)c12` [drawing 1011], the inhibition at 20 µM came to 0%.

As for `COCCNc1nc(-c2nccn2C)nc2sc(-c3cc(OC)ccc3Cl)c(-c3ccc(OC)cc3)c12` [drawing 1012], the inhibition at 20 µM lay in the range of 1 to 25%.

On to `COc1cccc(-c2csc3c(O)nc(-c4nccn4C)nc23)c1Cl` [drawing 1013], for which the inhibition at 20 µM was 1 to 25%.

Consider `COc1c(O)nc(-c2ccccn2)nc1Oc1ccc(C(=O)N(C)C)cc1` [drawing 1014], for which the inhibition at 20 µM was in the range of 51 to 75%.

In the case of `COc1c(O)nc(-c2ccccn2)nc1Nc1ccccc1` [drawing 1015], the inhibition at 20 µM lay in the range of 51 to 75%.

For `CCn1cc(Nc2nc(-c3ccccn3)nc(O)c2OC)cn1` [drawing 1016], the inhibition at 20 µM fell in the range of 51 to 75%.

On to `CCOc1cccc(Nc2nc(-c3ccccn3)nc(O)c2OC)c1` [drawing 1017], for which the inhibition at 20 µM fell in the range of 51 to 75%.

Take `COc1c(F)cccc1-c1sc2nc(-c3nccn3C)nc(NC3CCC(OC)C3)c2c1-c1ccccc1` (stereo not drawn) [drawing 1021]: the inhibition at 20 µM lay within 26 to 50%.

Staying with this experiment, now noted: without SOS, read-out: Rho-A: % inh.
For the compound `COCCNc1nc(-c2nccn2C)nc2sc(-c3cccc(OC)c3Cl)c(-c3ccc(OC)cc3)c12` [drawing 1009], the inhibition at 20 µM was 26 to 50%.

Take `COCCNc1nc(-c2nccn2C)nc2sc(-c3cccc(OC)c3)c(-c3ccc(OC)cc3)c12` [drawing 1010]: the inhibition at 20 µM turned out to be 0%.

`COCCNc1nc(-c2nccn2C)nc2sc(-c3ccccc3Cl)c(-c3ccc(OC)cc3)c12` [drawing 1011]: the inhibition at 20 µM stood at 0%.

In the case of `COCCNc1nc(-c2nccn2C)nc2sc(-c3cc(OC)ccc3Cl)c(-c3ccc(OC)cc3)c12` [drawing 1012], the inhibition at 20 µM lay in the range of 26 to 50%.

Take `COc1cccc(-c2csc3c(O)nc(-c4nccn4C)nc23)c1Cl` [drawing 1013]: the inhibition at 20 µM was 1 to 25%.

Take `COc1c(O)nc(-c2ccccn2)nc1Oc1ccc(C(=O)N(C)C)cc1` [drawing 1014]: the inhibition at 20 µM fell in the range of 51 to 75%.

As for `COc1c(O)nc(-c2ccccn2)nc1Nc1ccccc1` [drawing 1015], the inhibition at 20 µM fell in the range of 51 to 75%.

`CCn1cc(Nc2nc(-c3ccccn3)nc(O)c2OC)cn1` [drawing 1016]: the inhibition at 20 µM was 51 to 75%.

Turning to `CCOc1cccc(Nc2nc(-c3ccccn3)nc(O)c2OC)c1` [drawing 1017], the inhibition at 20 µM lay in the range of 51 to 75%.

For the compound `COc1c(F)cccc1-c1sc2nc(-c3nccn3C)nc(NC3CCC(OC)C3)c2c1-c1ccccc1` (stereo not drawn) [drawing 1021], the inhibition at 20 µM lay within 26 to 50%.
